{"source": "patent US7045343B2", "about": "“Sterilization indicator test packs” (3M Innovative Properties Company, priority 1998, dated 2006)", "key": {"[1]": {"system": "Bacillus stearothermophilus spores", "experiment": "Spore outgrowth (color change) of indicators after hydrogen peroxide plasma sterilization", "assay_type": "cell-based", "conditions": "1–22 min diffusion", "protocol": "(§1) Sterilization indicators for Examples 6–9 were prepared as described above with the exception that closure member 22 of the sterilization indicator was constructed of TYVEK™ high-density polyethylene fiber material, commercially available from E.I. du Pont de Nemours and Co., Wilmington, Del.\n(§2) Sterilization indicators were made as described above with spores that had been coated with each of the chemicals and concentrations listed in Table 6. The indicators were placed in instrument trays and exposed to a hydrogen peroxide plasma sterilization procedure at 45–55° C. in a STERRAD™ 100SI GMP Sterilizer, obtained from Advanced Sterilization Products Co., Irvine, Calif. During the sterilization procedure a vacuum was drawn in the sterilization chamber for 5–6 minutes until the pressure was reduced to 300 mTorr. A 1.8 ml aliquot of an aqueous solution of 58–60% hydrogen peroxide was then injected into the sterilization chamber over a period of about 6 minutes, yielding an empty chamber concentration of […] hydrogen peroxide, and hydrogen peroxide vapor was allowed to diffuse throughout the chamber for 1–22 minutes at 6–10 Torr. A vacuum was then drawn, reducing the pressure to 500 mTorr and removing all detectable hydrogen peroxide vapor from the chamber.\n(§3) After exposure to the sterilization procedure, the indicators were removed from the sterilizer and the inner containers containing the enzyme substrate and nutrient medium were crushed. The indicators were then incubated at 60° C. and examined for fluorescence every hour for 5 hours using a 3M™ ATTEST™ Model 190 Rapid Autoreader, commercially available from 3M Company, St. Paul, Minn. Additionally, spore growth, as indicated by a color change from purple to yellow, was determined visually after 168 hours of incubation.\n(§4) The number of growth positive indicators detected after 168 hours of incubation is recorded in Table 6.\nas §2, with “7.” for “6.”\nas §2, with “8.” for “6.”, “chamber. […]” for “chamber.”"}, "[2]": {"system": "enzyme associated with Bacillus stearothermophilus spores", "experiment": "Rapid enzyme fluorescence readout of indicators after hydrogen peroxide plasma sterilization", "assay_type": "biochemical", "conditions": "for FLUORESCENCE - PERCENT POSITIVE 1 HR / FLUORESCENCE - PERCENT POSITIVE 2 HR / FLUORESCENCE - PERCENT POSITIVE 3 HR / FLUORESCENCE - PERCENT POSITIVE 4 HR / FLUORESCENCE - PERCENT POSITIVE 5 HR: 1–22 min diffusion", "protocol": "as §1, §2, §3, §4\nas §2, with “7.” for “6.”\nas §2, with “8.” for “6.”, “chamber. […]” for “chamber.”"}, "[3]": {"system": "Bacillus stearothermophilus spores", "experiment": "Spore outgrowth (color change) of indicators after prevacuum steam sterilization", "assay_type": "cell-based", "conditions": "Example 5, 4-pulse prevacuum steam 121° C., 7–13 min", "protocol": "(§5) The indicators prepared for the Examples were dual rapid readout indicators that provided both a rapid, enzyme-based efficacy test and a confirmatory spore outgrowth test. Spores coated on the carrier strip 16 served as the source of active enzyme whose activity was measured by the rapid enzyme test. These same spores were then incubated in the spore outgrowth portion of the test.\n(§6) Bacillus stearothermophilus, commercially available as ATCC 7953 from American Type Culture Collection, Rockville, Md., was grown overnight (16 hours) at 58° C. in tryptic soy broth. This culture was used to inoculate the surface of agar plates consisting of 8 g/l nutrient broth, 4 g/l yeast extract, 0.1 g/l manganese chloride and 20 g/l agar at pH 7.2. Plates were incubated at 58° C. for 72 hours. Spores were scraped from the plates and suspended in sterile distilled water. The spores were separated from the vegetative debris by centrifuging the suspension at 7000 rpm and 4° C. for 20 minutes. The supernatant was poured off and the spores were resuspended in sterile distilled water. The cleaning procedure was repeated several times. After the final wash, the spores were suspended in sterile distilled water, at a concentration of approximately 1×10^8 spores per milliliter.\n(§7) The spores were then treated with the chemicals identified in Tables 1–5. All chemicals tested were obtained from commercial sources. The spores were centrifuged at 6000 rpm for 10 minutes. The supernatant and coating chemical mixtures were heated at 60–80° C. for several minutes and vortexed to get the material into solution. The spores were then mixed into the sterilant-resistant chemical solution. The sterilant-resistant chemical solution was applied to 5×25 mm, 591 A paper strips (Schleicher & Schuell, Inc., Keene, N.H.) by pipetting 10–15 microliters to each strip for a final population of about 1×10^6 spores per strip. The strips were dried 16 hours at 37° C.\n(§8) The treated spore strips were placed on the bottom of the outer container 12 of the indicator 10 and a barrier was inserted between the spore strip 16 and the inner container 18, which contained enzyme substrate. A […] ( 11/16 inch) disc of polypropylene blown microfiber material, with a weight of 200 g/m^2, commercially available as “THINSULATE™ 200-B brand Thermal Insulation” from 3M Company, St. Paul, Minn., was used as the barrier. The inner container 18 contained 0.67 ml nutrient medium, consisting of 17 g of a bacteriological peptone and a 0.17 g/l of L-alanine, as well as 0.1 g 4-methylumbelliferyl-alpha-D-glucoside, commercially available from Sigma Chemical Company, St. Louis, Mo., dissolved in 200 microliters of N,N-dimethylformamide, and 0.03 g bromocresol purple pH indicator dye, per liter of water. The pH of the enzyme substrate and nutrient medium solution was adjusted to 7.6 with 0.1N sodium hydroxide.\n(§9) Sterilization indicators were made as described above with each of the chemicals and concentrations described in Table 1. Control indicators were made using untreated spores. The indicators were placed in metal instrument trays and exposed at 121° C. in a Getinge Steam Sterilizer (Getinge International, Inc., 1100 Towbin Ave., Lakewood, N.J.) using a 4-pulse prevacuum cycle at 121° C. with a vacuum level of 0.075–0.085 bar and a steam pulse to 1.00 bar for each pulse. Indicators were exposed in the sterilizer for between 7 and 13 minutes. This cycle is depicted in the time-pressure diagram in FIG. 5. After exposure the inner containers containing the enzyme substrate and nutrient medium were crushed and the indicators were incubated at 60° C. The indicators were examined for fluorescence using a 3M™ ATTEST™ Model 190 Rapid Autoreader, commercially available from 3M Company, St. Paul, Minn. Additionally, spore growth, as indicated by a color change from purple to yellow, was determined visually after 168 hours of incubation at 60° C. […]"}, "[4]": {"system": "enzyme associated with Bacillus stearothermophilus spores", "experiment": "Rapid enzyme fluorescence readout of dual rapid readout indicators after prevacuum steam sterilization", "assay_type": "biochemical", "conditions": "4-pulse prevacuum steam 121° C.; for FLUORESCENCE - PERCENT POSITIVE 1 HR / FLUORESCENCE - PERCENT POSITIVE 2 HR / FLUORESCENCE - PERCENT POSITIVE 3 HR / FLUORESCENCE - PERCENT POSITIVE 4 HR: Example 5, 7–13 min", "protocol": "as §5, §6, §7, §8, §9"}}, "data": [{"substance": "Hexaglyn Di-Stearate", "values": [{"measurement": "NO. GROWTH POSITIVE 168 HR", "setting": "[1]; Example 8, 25 mg/ml coating", "result": 16}, {"measurement": "NO. GROWTH POSITIVE 168 HR", "setting": "[1]; Example 8, 50 mg/ml coating", "result": 16}, {"measurement": "NO. GROWTH POSITIVE 168 HR", "setting": "[1]; Example 8, 100 mg/ml coating", "result": 16}, {"measurement": "accuracy of sterilization indicators compared to indicators made with untreated spores", "setting": "[2]; 1–3 hours after exposure", "result": "improved"}, {"measurement": "FLUORESCENCE - PERCENT POSITIVE 1 HR", "setting": "[2]; Example 8, 25 mg/ml coating", "result": 100, "unit": "%"}, {"measurement": "FLUORESCENCE - PERCENT POSITIVE 2 HR", "setting": "[2]; Example 8, 25 mg/ml coating", "result": 100, "unit": "%"}, {"measurement": "FLUORESCENCE - PERCENT POSITIVE 3 HR", "setting": "[2]; Example 8, 25 mg/ml coating", "result": 100, "unit": "%"}, {"measurement": "FLUORESCENCE - PERCENT POSITIVE 4 HR", "setting": "[2]; Example 8, 25 mg/ml coating", "result": 100, "unit": "%"}, {"measurement": "FLUORESCENCE - PERCENT POSITIVE 5 HR", "setting": "[2]; Example 8, 25 mg/ml coating", "result": 100, "unit": "%"}, {"measurement": "FLUORESCENCE - PERCENT POSITIVE 1 HR", "setting": "[2]; Example 8, 50 mg/ml coating", "result": 100, "unit": "%"}, {"measurement": "FLUORESCENCE - PERCENT POSITIVE 2 HR", "setting": "[2]; Example 8, 50 mg/ml coating", "result": 100, "unit": "%"}, {"measurement": "FLUORESCENCE - PERCENT POSITIVE 3 HR", "setting": "[2]; Example 8, 50 mg/ml coating", "result": 100, "unit": "%"}, {"measurement": "FLUORESCENCE - PERCENT POSITIVE 4 HR", "setting": "[2]; Example 8, 50 mg/ml coating", "result": 100, "unit": "%"}, {"measurement": "FLUORESCENCE - PERCENT POSITIVE 5 HR", "setting": "[2]; Example 8, 50 mg/ml coating", "result": 100, "unit": "%"}, {"measurement": "FLUORESCENCE - PERCENT POSITIVE 1 HR", "setting": "[2]; Example 8, 100 mg/ml coating", "result": 100, "unit": "%"}, {"measurement": "FLUORESCENCE - PERCENT POSITIVE 2 HR", "setting": "[2]; Example 8, 100 mg/ml coating", "result": 100, "unit": "%"}, {"measurement": "FLUORESCENCE - PERCENT POSITIVE 3 HR", "setting": "[2]; Example 8, 100 mg/ml coating", "result": 100, "unit": "%"}, {"measurement": "FLUORESCENCE - PERCENT POSITIVE 4 HR", "setting": "[2]; Example 8, 100 mg/ml coating", "result": 100, "unit": "%"}, {"measurement": "FLUORESCENCE - PERCENT POSITIVE 5 HR", "setting": "[2]; Example 8, 100 mg/ml coating", "result": 100, "unit": "%"}]}, {"substance": "polyoxyethylene (5) glyceryl monostearate [POE (5) Glyceryl Monostearate]", "values": [{"measurement": "NO. GROWTH POSITIVE 168 HR", "setting": "[3]; 50 mg/ml coating", "result": 15}, {"measurement": "NO. GROWTH POSITIVE 168 HR", "setting": "[3]; 100 mg/ml coating", "result": 5}, {"measurement": "accuracy of sterilization indicators compared to indicators made with untreated spores", "setting": "[4]", "result": "improved"}, {"measurement": "FLUORESCENCE - PERCENT POSITIVE 1 HR", "setting": "[4]; 50 mg/ml coating", "result": 0, "unit": "%"}, {"measurement": "FLUORESCENCE - PERCENT POSITIVE 2 HR", "setting": "[4]; 50 mg/ml coating", "result": 100.0, "unit": "%"}, {"measurement": "FLUORESCENCE - PERCENT POSITIVE 3 HR", "setting": "[4]; 50 mg/ml coating", "result": 100.0, "unit": "%"}, {"measurement": "FLUORESCENCE - PERCENT POSITIVE 4 HR", "setting": "[4]; 50 mg/ml coating", "result": 100.0, "unit": "%"}, {"measurement": "FLUORESCENCE - PERCENT POSITIVE 1 HR", "setting": "[4]; 100 mg/ml coating", "result": 0, "unit": "%"}, {"measurement": "FLUORESCENCE - PERCENT POSITIVE 2 HR", "setting": "[4]; 100 mg/ml coating", "result": 100, "unit": "%"}, {"measurement": "FLUORESCENCE - PERCENT POSITIVE 3 HR", "setting": "[4]; 100 mg/ml coating", "result": 100, "unit": "%"}, {"measurement": "FLUORESCENCE - PERCENT POSITIVE 4 HR", "setting": "[4]; 100 mg/ml coating", "result": 100, "unit": "%"}]}, {"substance": "polyoxyethylene (60) glycerol monostearate [POE(60) Glycerol Monostearate]", "values": [{"measurement": "NO. GROWTH POSITIVE 168 HR", "setting": "[1]; Example 7, 50 mg/ml coating", "result": 7}, {"measurement": "NO. GROWTH POSITIVE 168 HR", "setting": "[1]; Example 7, 100 mg/ml coating", "result": 7}, {"measurement": "accuracy of sterilization indicators compared to indicators made with untreated spores", "setting": "[2]; 2–3 hours after exposure", "result": "improved"}, {"measurement": "FLUORESCENCE - PERCENT POSITIVE 1 HR", "setting": "[2]; Example 7, 50 mg/ml coating", "result": 100, "unit": "%"}, {"measurement": "FLUORESCENCE - PERCENT POSITIVE 2 HR", "setting": "[2]; Example 7, 50 mg/ml coating", "result": 100, "unit": "%"}, {"measurement": "FLUORESCENCE - PERCENT POSITIVE 3 HR", "setting": "[2]; Example 7, 50 mg/ml coating", "result": 100, "unit": "%"}, {"measurement": "FLUORESCENCE - PERCENT POSITIVE 4 HR", "setting": "[2]; Example 7, 50 mg/ml coating", "result": 100, "unit": "%"}, {"measurement": "FLUORESCENCE - PERCENT POSITIVE 5 HR", "setting": "[2]; Example 7, 50 mg/ml coating", "result": 100, "unit": "%"}, {"measurement": "FLUORESCENCE - PERCENT POSITIVE 1 HR", "setting": "[2]; Example 7, 100 mg/ml coating", "result": 57.1, "unit": "%"}, {"measurement": "FLUORESCENCE - PERCENT POSITIVE 2 HR", "setting": "[2]; Example 7, 100 mg/ml coating", "result": 57.1, "unit": "%"}, {"measurement": "FLUORESCENCE - PERCENT POSITIVE 3 HR", "setting": "[2]; Example 7, 100 mg/ml coating", "result": 71.4, "unit": "%"}, {"measurement": "FLUORESCENCE - PERCENT POSITIVE 4 HR", "setting": "[2]; Example 7, 100 mg/ml coating", "result": 71.4, "unit": "%"}, {"measurement": "FLUORESCENCE - PERCENT POSITIVE 5 HR", "setting": "[2]; Example 7, 100 mg/ml coating", "result": 71.4, "unit": "%"}]}]}
